One data set concerns HepG2. Kind of data set: cells. It counts as functional, cell-based. The note with it: Homo sapiens, HepG2, 24 h.
In another data set the target is T1, Acetylcholinesterase (Rattus norvegicus, UniProt P37136).
T1 sequence (P37136 whole entry): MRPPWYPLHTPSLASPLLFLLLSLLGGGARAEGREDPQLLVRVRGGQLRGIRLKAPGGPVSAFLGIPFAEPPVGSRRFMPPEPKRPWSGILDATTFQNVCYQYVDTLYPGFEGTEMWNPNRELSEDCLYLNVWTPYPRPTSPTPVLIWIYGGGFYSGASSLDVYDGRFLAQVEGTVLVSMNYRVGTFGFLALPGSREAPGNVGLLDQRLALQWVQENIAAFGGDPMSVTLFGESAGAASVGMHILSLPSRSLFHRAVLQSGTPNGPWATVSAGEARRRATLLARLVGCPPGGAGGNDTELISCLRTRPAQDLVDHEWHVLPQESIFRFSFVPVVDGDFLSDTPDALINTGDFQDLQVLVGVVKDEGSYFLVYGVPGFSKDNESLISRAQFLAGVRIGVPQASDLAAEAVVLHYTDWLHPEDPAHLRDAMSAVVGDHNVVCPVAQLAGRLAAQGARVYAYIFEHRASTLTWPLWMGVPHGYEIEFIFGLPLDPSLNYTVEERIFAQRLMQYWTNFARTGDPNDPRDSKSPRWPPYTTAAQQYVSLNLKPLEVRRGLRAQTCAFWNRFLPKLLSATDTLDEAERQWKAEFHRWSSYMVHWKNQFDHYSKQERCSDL
The experiment in a line: Inhibition of rat cortex AChE using acetylthiocholine iodide as substrate by Ellman's method.

In a further data set the target is Butyrylcholinesterase (Rattus norvegicus, UniProt Q9JKC1).
Chain of Butyrylcholinesterase (Q9JKC1 whole entry): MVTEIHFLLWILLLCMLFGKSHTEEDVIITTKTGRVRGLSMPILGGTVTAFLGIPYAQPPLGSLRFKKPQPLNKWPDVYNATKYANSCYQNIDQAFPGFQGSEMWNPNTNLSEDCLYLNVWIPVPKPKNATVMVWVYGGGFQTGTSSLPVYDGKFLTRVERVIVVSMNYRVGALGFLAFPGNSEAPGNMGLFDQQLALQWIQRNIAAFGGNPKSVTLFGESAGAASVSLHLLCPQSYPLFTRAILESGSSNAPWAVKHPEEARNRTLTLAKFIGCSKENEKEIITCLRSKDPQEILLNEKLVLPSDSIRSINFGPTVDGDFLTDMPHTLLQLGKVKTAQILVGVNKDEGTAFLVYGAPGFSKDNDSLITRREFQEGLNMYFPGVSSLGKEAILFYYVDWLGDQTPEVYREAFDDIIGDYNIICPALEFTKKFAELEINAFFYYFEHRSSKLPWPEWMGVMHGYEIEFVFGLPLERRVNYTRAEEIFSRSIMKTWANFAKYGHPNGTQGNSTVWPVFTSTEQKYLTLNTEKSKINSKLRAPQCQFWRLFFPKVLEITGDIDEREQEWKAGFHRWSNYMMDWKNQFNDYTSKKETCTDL
A short description of the next data set: in vitro. The note with it: rat, HepG2 cells.
For data set [1], the target named is Voltage-gated inwardly rectifying potassium channel KCNH2 (Homo sapiens, UniProt Q12809).
Chain of Voltage-gated inwardly rectifying potassium channel KCNH2 (Q12809 whole entry): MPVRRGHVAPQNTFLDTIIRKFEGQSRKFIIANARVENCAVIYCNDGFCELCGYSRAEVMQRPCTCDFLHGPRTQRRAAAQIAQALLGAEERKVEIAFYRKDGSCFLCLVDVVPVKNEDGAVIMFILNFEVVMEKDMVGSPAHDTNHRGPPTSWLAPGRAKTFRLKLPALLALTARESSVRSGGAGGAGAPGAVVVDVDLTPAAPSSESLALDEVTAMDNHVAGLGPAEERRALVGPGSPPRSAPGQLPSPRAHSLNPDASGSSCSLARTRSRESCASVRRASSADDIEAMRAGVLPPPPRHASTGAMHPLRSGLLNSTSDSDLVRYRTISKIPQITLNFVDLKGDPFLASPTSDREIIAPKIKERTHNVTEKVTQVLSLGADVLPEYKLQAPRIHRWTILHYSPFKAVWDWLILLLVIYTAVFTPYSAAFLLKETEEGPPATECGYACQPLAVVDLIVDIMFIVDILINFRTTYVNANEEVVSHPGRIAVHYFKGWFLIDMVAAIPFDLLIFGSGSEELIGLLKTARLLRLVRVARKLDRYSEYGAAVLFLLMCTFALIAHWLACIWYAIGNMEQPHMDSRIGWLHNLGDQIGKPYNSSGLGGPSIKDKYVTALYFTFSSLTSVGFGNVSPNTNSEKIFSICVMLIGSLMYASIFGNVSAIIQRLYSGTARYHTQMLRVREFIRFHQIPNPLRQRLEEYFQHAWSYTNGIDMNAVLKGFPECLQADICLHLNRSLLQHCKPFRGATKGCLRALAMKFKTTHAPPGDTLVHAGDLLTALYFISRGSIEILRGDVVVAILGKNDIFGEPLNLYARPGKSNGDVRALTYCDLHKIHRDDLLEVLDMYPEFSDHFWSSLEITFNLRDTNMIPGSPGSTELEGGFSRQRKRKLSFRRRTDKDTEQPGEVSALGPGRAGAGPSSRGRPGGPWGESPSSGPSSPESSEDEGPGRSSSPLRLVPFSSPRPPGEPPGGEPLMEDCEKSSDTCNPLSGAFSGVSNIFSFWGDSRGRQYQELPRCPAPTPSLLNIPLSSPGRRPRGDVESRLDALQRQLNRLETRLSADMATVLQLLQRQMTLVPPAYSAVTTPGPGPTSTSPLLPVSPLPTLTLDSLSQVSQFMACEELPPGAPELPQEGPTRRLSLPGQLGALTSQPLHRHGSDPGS
Description: Inhibition of hERG expressed in CHO-K1 cells assessed as reduction in thallium influx incubated for 30 minutes by FLIPR
Data set [2] is described as follows: Tmax in C57BL/6 mouse brain at 10 mg/kg, po administered as single dose measured upto 24 hrs by UPLC analysis. Format: ADME, organism-based.
Data set [3] is described as follows: Cmax in C57BL/6 mouse kidney at 10 mg/kg, po administered as single dose measured at 2.50 hrs by UPLC analysis. On the set-up: route oral, time 2.5 hrs, dose 10 mg/kg. Format: ADME, organism-based.
A short description of data set [4]: MRT (0 to infinity) in C57BL/6 mouse liver at 10 mg/kg, po administered as single dose by UPLC analysis. Format: ADME, organism-based.
A short description of data set [5]: Cmax in C57BL/6 mouse plasma at 10 mg/kg, po administered as single dose measured at 2.25 hrs by UPLC analysis. Format: ADME, organism-based. On the set-up: route oral, dose 10 mg/kg, time 2.25 hrs.
The nature of data set [6]: AUC (0 to infinity) in C57BL/6 mouse plasma at 10 mg/kg, po administered as single dose measured upto 24 hrs by UPLC analysis. The note with it: in vivo. Format: ADME, organism-based. On the set-up: route oral, dose 10 mg/kg, time <=24.
Data set [7] is described as follows: Tmax in C57BL/6 mouse kidney at 10 mg/kg, po administered as single dose by UPLC analysis. It counts as ADME, organism-based.
Data set [8] in a line: Cmax in C57BL/6 mouse liver at 10 mg/kg, po administered as single dose measured at 1.75 hrs by UPLC analysis. Format: ADME, organism-based. On the set-up: route oral, time 1.75 hrs, dose 10 mg/kg.
The nature of data set [9]: Tmax in C57BL/6 mouse liver at 10 mg/kg, po administered as single dose by UPLC analysis. It counts as ADME, organism-based.
A short description of data set [10]: AUC (0 to t) in C57BL/6 mouse plasma at 10 mg/kg, po administered as single dose measured upto 24 hrs by UPLC analysis. Format: ADME, organism-based. Also on record: route oral, dose 10 mg/kg, time <=24. The conditions noted are these: in vivo.
The species named for the next data set is Mus musculus. Kind of data set: Anti-alzheimer activity in C57BL/6 mouse assessed as decrease in pirenzepine induced LTP at 1 microM pretreated for 90 mins and further incubated with pirenzepine for 30 mins followed by high frequency stimulation by electrophysiological recording. It counts as functional, organism-based. The conditions noted are these: time 120.0 min.

A short description of data set [11]: AUC (0 to infinity) in C57BL/6 mouse kidney at 10 mg/kg, po administered as single dose by UPLC analysis. Format: ADME, organism-based. On the set-up: route oral, time infinity, dose 10 mg/kg. The note with it: in vivo.
A short description of data set [12]: Drug concentration in C57BL/6 mouse muscle at 10 mg/kg, po administered as single dose by UPLC analysis. Format: ADME, organism-based, Muscle tissue. The note with it: in vivo.
A short description of data set [13]: Terminal half life in C57BL/6 mouse kidney at 10 mg/kg, po administered as single dose by UPLC analysis. It counts as ADME, organism-based. The note with it: read-out: beta t1/2 (converted).
Data set [14] in a line: Tmax in C57BL/6 mouse plasma at 10 mg/kg, po administered as single dose measured upto 24 hrs by UPLC analysis. Format: ADME, organism-based.
Data set [15] in a line: AUC (0 to infinity) in C57BL/6 mouse brain at 10 mg/kg, po administered as single dose measured upto 24 hrs by UPLC analysis. It counts as ADME, organism-based. On the set-up: route oral, dose 10 mg/kg, time <=24. The note with it: in vivo.
Data set [16] is described as follows: Cmax in C57BL/6 mouse brain at 10 mg/kg, po administered as single dose measured at […] by UPLC analysis. It counts as ADME, organism-based.
Data set [17] is described as follows: MRT (0 to infinity) in C57BL/6 mouse plasma at 10 mg/kg, po administered as single dose measured upto 24 hrs by UPLC analysis. Format: ADME, organism-based.
Data set [18] in a line: MRT (0 to infinity) in C57BL/6 mouse kidney at 10 mg/kg, po administered as single dose by UPLC analysis. Format: ADME, organism-based.
The nature of data set [19]: Terminal half life in C57BL/6 mouse liver at 10 mg/kg, po administered as single dose by UPLC analysis. Format: ADME, organism-based. The note with it: read-out: beta t1/2 (converted).
The target in data set [20] is T2, Acetylcholinesterase (Rattus norvegicus) (UniProt P37136).
T2 sequence (whole entry): T1 sequence (P37136 whole entry)
The experiment in a line: Mixed-type inhibition of rat cortex AChE at 0.5 to 1.5 nM using varying levels of acetylthiocholine iodide as substrate measured at 5 minutes by Ellman's method based Lineweaver-Burk plot analysis. The note with it: dose 0.5-1.5 nM.

The nature of data set [21]: Terminal half life in C57BL/6 mouse brain at 10 mg/kg, po administered as single dose measured upto 24 hrs by UPLC analysis. It counts as ADME, organism-based. The note with it: read-out: beta t1/2 (converted).
Data set [22] can be described thus: Terminal half life in C57BL/6 mouse plasma at 10 mg/kg, po administered as single dose measured upto 24 hrs by UPLC analysis. Format: ADME, organism-based. The conditions noted are these: read-out: beta t1/2 (converted).
The nature of data set [23]: AUC (0 to infinity) in C57BL/6 mouse liver at 10 mg/kg, po administered as single dose by UPLC analysis. It counts as ADME, organism-based. Also on record: time infinity, route oral, dose 10 mg/kg. The conditions noted are these: in vivo.
In a further data set the test system is Hippocampus. Kind of data set: Anti-alzheimer activity in theta-burst stimulated C57BL/6 mouse hippocampus CA3 region assessed as enhancement of synaptic strength by measuring long term potentiation in brain slice at 3 mg/kg, po for 4 days by electrophysiological recording relative to control. The note with it: time 4.0 day. Format: functional, organism-based.

The nature of data set [24]: MRT (0 to infinity) in C57BL/6 mouse brain at 10 mg/kg, po administered as single dose measured upto 24 hrs by UPLC analysis. Format: ADME, organism-based.

The structures appear in SMILES notation. The source made the active and inactive calls. The calls are words filed in the database; no cut-off is given here.

10 compounds from ChEMBL document CHEMBL5036340 (Eur J Med Chem, 2021) can be followed below.

Description for Butyrylcholinesterase: Inhibition of rat serum BChE using butyrylthiocholine iodide as substrate by Ellman's method
Description for HepG2: Cytotoxicity against human HepG2 cells assessed as reduction in cell viability incubated for 24 hrs by MTT assay
Description for in vitro: Ratio of IC50 for cytotoxicity against human HepG2 cells to ratio of IC50 for inhibition of rat cortex AChE

Take `O=c1ccc2c([nH]1)CCC(NCCCCNc1c3c(nc4cc(Cl)ccc14)CCCC3)C2` (configuration not stated): the IC50 in the data set on HepG2 was 110 µM; at Acetylcholinesterase, 0.00294 µM; on Butyrylcholinesterase, 0.347 µM.
`O=c1ccc2c([nH]1)CCC(NCCCCCCCCNc1c3c(nc4cc(Cl)ccc14)CCCC3)C2` (configuration not stated): the selectivity ratio in the data set “in vitro” came to 3340. The IC50 was 2.19 µM in [1], 42.6 µM with HepG2, 0.0127 µM at Acetylcholinesterase and 1.36 µM at Butyrylcholinesterase.
Regarding `O=c1ccc2c([nH]1)CCC(NCCCCCNc1c3c(nc4cc(Cl)ccc14)CCCC3)C2` (configuration not stated), in “in vitro”, the selectivity ratio amounted to 8340. In addition, the IC50 in data set [1] was determined as 7.66 µM; in the data set with HepG2, 47.2 µM; against Acetylcholinesterase, 0.00566 µM; against Butyrylcholinesterase, 0.503 µM.
Turning to `O=c1ccc2c([nH]1)CCC(NCCCNc1c3c(nc4cc(Cl)ccc14)CCCC3)C2` (configuration not stated), the Tmax in data set [2] came to 2.75 h; in [7], 2.5 h; in data set [9], 1.75 h; in [14] it was 2.25 h. The values for the Cmax in data set [3], in [5] and in data set [8] were 165 ng/mL, 68.3 ng/mL and 148 ng/mL, respectively. Further, the MRT inf in data set [4] stood at 8.39 h; in data set [17] it was 10.8 h; in [18] it was 11.1 h; in data set [24] it was 11.1 h. Besides, in “in vitro”, the selectivity ratio stood at 119000. In addition, the AUC turned out to be 279 ng·h/mL in [6], 1124.93 g/h in data set [11], 21.86 g/h in data set [15] and 534.14 g/h in data set [23]. In data set [10], the AUCt is 246 ng·h/mL. Also, the result in the data set filed under Mus musculus and in the data set on Hippocampus was Active. Moreover, the IC50 in data set [1] is 8.98 µM; with HepG2, 107 µM; at Acetylcholinesterase, 0.0009 µM; against Butyrylcholinesterase it was 0.2 µM. The Drug uptake entry in data set [12] is reported as “Not Active”. Moreover, the half-life in data set [13] was 7.49 h; in [19] it was 7.16 h; in data set [21], 7.8 h; in data set [22], 7.89 h. The compound also showed a Cmax at […] in data set [16] of 4.02 ng/mL. The inhibition entry in [20] was “Active”.
With `O=c1ccc2c([nH]1)CCC(NCCCCCCNc1c3c(nc4cc(Cl)ccc14)CCCC3)C2` (configuration not stated), in “in vitro”, the selectivity ratio is 8520. The IC50 in [1] amounted to 11.6 µM; in the data set on HepG2, 51.3 µM; on Acetylcholinesterase it was 0.00602 µM; at Butyrylcholinesterase, 0.574 µM.
With `O=c1ccc2c([nH]1)CCC(NCCCCCCCCCCNc1c3c(nc4cc(Cl)ccc14)CCCC3)C2` (configuration not stated), in “in vitro”, the selectivity ratio amounted to 260. Besides, the IC50 amounted to 2.77 µM in data set [1], 17.2 µM in the data set on HepG2, 0.066 µM at Acetylcholinesterase and 3.78 µM against Butyrylcholinesterase.
On to `O=c1ccc2c([nH]1)CCC(NCCCCCCCNc1c3c(nc4cc(Cl)ccc14)CCCC3)C2` (configuration not stated), for which the selectivity ratio in the data set “in vitro” was determined as 2660. For the same compound, the IC50 in [1] turned out to be 6.36 µM; in the data set with HepG2 it was 39.2 µM; at Acetylcholinesterase, 0.0148 µM; at Butyrylcholinesterase it was 0.893 µM.
Turning to `O=c1ccc2c([nH]1)CCC(NCCNc1c3c(nc4cc(Cl)ccc14)CCCC3)C2` (configuration not stated), in “in vitro”, the selectivity ratio was determined as 12100. Further, the IC50 in [1] was determined as 2.41 µM; with HepG2, 214 µM; against Acetylcholinesterase, 0.0177 µM; against Butyrylcholinesterase, 0.401 µM.
Consider `O=c1ccc2c([nH]1)CCC(NCCCCCCCCCNc1c3c(nc4cc(Cl)ccc14)CCCC3)C2` (configuration not stated), for which the IC50 in the data set with HepG2 was determined as 35.5 µM; on Acetylcholinesterase, 0.0291 µM; at Butyrylcholinesterase, 1.07 µM.
The compound `COc1cc2c(cc1OC)C(=O)C(CC1CCN(Cc3ccccc3)CC1)C2` (configuration not stated) [DONEPEZIL] came in with an IC50 in the data set on HepG2 of 263 µM.
